Source: PMC12198407, “Preclinical and first-in-human of purinostat mesylate, a novel selective HDAC I/IIb inhibitor, in relapsed/refractory multiple myeloma and lymphoma” (Signal Transduction and Targeted Therapy, 2025)
Where two headings read alike, the source gives them in different places.

Legend:
[1] = Intravenous vascular irritation test; type: in vivo, rabbits; conditions: 0.204 mg/mL, 10 mL/kg, 5 days
Experimental: This experiment included a blank formulation group of injectable Purinostat Mesylate and an injectable Purinostat Mesylate group, with 8 Japanese White Rabbits in each group, evenly divided by sex. The injectable Purinostat Mesylate group received an intravenous infusion of 0.204 mg/mL (the maximum intended clinical concentration) at a volume of 10 mL/kg via the right ear marginal vein. The blank formulation group received an intravenous infusion of hydroxypropyl beta-cyclodextrin at the same dose as the injectable Purinostat Mesylate group. Each rabbit in both groups also received an equal volume of 0.9% sodium chloride injection via the left ear marginal vein as a self-control. The administration was performed once daily for a total of 5 consecutive days, with the first day of administration defined as Day 1 of the experiment. During the study, the general condition of the rabbits and the injection site were monitored daily. Approximately 72 hours and 16 days after administration, 4 rabbits from each group were euthanized for gross anatomical observation of the injection site, and blood vessels and surrounding tissues from the injection site were collected for histopathological examination.

CYP2D6 = target: T1, CYP2D6 (Homo sapiens, UniProt P10635); experiment: CYP inhibition, human liver microsomes; type: in vitro ADME
T1 construct: human liver microsomal cytochrome P450 isoenzymes; from tissue; host or cells: human liver microsomes

[2] = Metabolite profiling in plasma, bile, urine, feces; type: in vivo, SD rats; conditions: for share of plasma AUC0-96h: [14C] 3 mg/100 µCi/kg i.v.; for amount in bile, % of administered dose: 0 to 72 hours; for amount in feces, % of administered dose / amount in urine, % of administered dose: 0 to 168 hours
Experimental: Following a single intravenous administration of [14C] Purinostat Mesylate at a dose of 3 mg/100 µCi/kg in male and female rats, a total of 14 metabolites were identified, in addition to the parent compound. These were designated as M382, M396, M474, M475, M490, M516, M517, M532, M546, M548, M558, M666, M708a, and M708b. Among these, M382 is an acetylated product of the parent drug after N-dealkylation, M396 is a carboxylic acid derivative of M382, M474 is a reduction product of the parent drug, M475 is a hydroxylated product derived from the amino conversion of M474, M490 is a mono-oxidation product of M474, M516 is an acetylated product of M474, M517 is a hydroxylated product derived from the amino conversion of M516, M532 is an acetylated product of the parent drug, M546 is a methylated product of M532, M548 is a dioxidation product of M516, M558 is a glucuronic acid conjugate of M382, M666 is a glucuronic acid conjugate of the parent drug, M708a is a mono-oxidation glucuronic acid conjugate of M516, and M708b is a glucuronic acid conjugate of M532.

[3] = Bone marrow micronucleus test; type: in vivo, NIH mice; conditions: 20, 40, 60, 80 mg/kg i.v. daily for 3 days
Experimental: In this experiment, 90 SPF-grade NIH mice (half male and half female) were randomly divided into 7 groups: a negative control group (0.9% sodium chloride injection, intravenous injection, 10 mL/kg), an excipient control group (blank formulation, intravenous injection, 10 mL/kg), a positive control group (cyclophosphamide 40 mg/kg, intraperitoneal injection, 10 mL/kg), and four groups for intravenous injection of Purinostat Mesylate at low, medium, high, and highest doses (20, 40, 60, and 80 mg/kg, intravenous injection, 10 mL/kg). The negative control and positive control groups each consisted of 20 mice, while the other groups each consisted of 10 mice, with an equal number of males and females. Mice in each group were administered the specified doses once daily for 3 consecutive days, while the positive control group received only a single dose. Twenty to twenty-four hours after the last administration, all mice in each group were euthanized, and femoral bone marrow smears were prepared. The smears were stained with Giemsa and observed under an oil immersion microscope. For each mouse, 4000 polychromatic erythrocytes (PCEs) were counted to calculate the micronucleus incidence (‰), while 500 bone marrow erythrocytes were counted to determine the ratio of polychromatic erythrocytes to total erythrocytes.

[4] = system: class I HDAC substrates histone H3 and H4 in SUDHL-6, Daudi, Raji, Ramos, RPMI-8226; experiment: Cellular acetylation of histone H3 and H4; type: cell-based, human
Excerpt: The results of these cell experiments were consistent with the in vitro enzyme activity assay results.

[5] = Pharmacokinetics, intravenous; type: in vivo, SD rats; conditions: for AUC(0-t) / half-life / Vd / clearance / C0: both sexes, SD, rat, plasma, iv; for Vd: read-out: Vdss; for clearance: read-out: plasma clearance (CL); for increase in AUC0-last for tenfold increase in dose: 1 to 10 mg/kg
Experimental: After a single intravenous injection of Purinostat Mesylate at doses of 1, 3, and 10 mg/kg, the average initial concentrations (C0) in male and female SD rats were 736 ± 66.5, 2880 ± 566, and 11500 ± 1790 ng/mL, respectively. […] The half-lives (T1/2) were 3.79 ± 0.511, 4.21 ± 0.248, and 6.24 ± 1.57 min, respectively. The area under the curve (AUC0-last) values were 55.3 ± 3.68, 248 ± 36.1, and 1280 ± 122 ng.h/mL, respectively. After daily intravenous injections of 3 mg/kg Purinostat Mesylate for 7 consecutive days, the average AUC0-last on day 7 for both male and female rats was 332 ± 43.6 ng.h/mL.

HUVEC = experiment: Proliferation, MTT or Alamar Blue; type: cell-based; conditions: Homo sapiens, read-out: IC50, normal HUVEC cells

T1 sequence (P10635 whole entry): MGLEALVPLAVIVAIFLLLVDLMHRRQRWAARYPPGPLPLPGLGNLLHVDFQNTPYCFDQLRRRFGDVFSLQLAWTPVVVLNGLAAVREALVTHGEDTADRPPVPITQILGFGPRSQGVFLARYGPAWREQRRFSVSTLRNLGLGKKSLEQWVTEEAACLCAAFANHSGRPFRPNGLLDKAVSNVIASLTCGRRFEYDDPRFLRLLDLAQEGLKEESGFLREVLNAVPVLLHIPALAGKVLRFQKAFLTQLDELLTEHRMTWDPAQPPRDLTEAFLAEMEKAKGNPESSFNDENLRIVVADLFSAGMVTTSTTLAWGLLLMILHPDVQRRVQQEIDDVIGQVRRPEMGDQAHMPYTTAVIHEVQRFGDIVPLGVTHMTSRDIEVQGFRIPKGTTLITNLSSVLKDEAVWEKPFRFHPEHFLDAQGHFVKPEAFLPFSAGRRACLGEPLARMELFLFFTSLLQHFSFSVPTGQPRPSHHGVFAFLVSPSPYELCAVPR
Experimental for T315I Bcr-Abl B-ALL: Subcutaneous or orthotopic tumor models were established using NOD/SCID mice for human-derived lymphoma, multiple myeloma cell lines, and samples from clinical B-ALL patients. The Ighmyc transgenic mice and primary B-ALL models were induced using C57 mouse strains. The experimental doses of Purinostat Mesylate include 1.25, 2.5, 5, 10, and 20 mg/kg, administered via tail vein (i.v.) three times a week. In each model experiment, the positive control drugs included the HyperCVAD regimen (cyclophosphamide, doxorubicin, vincristine, dexamethasone, methotrexate, and cytarabine) simulating clinical treatment for double-hit lymphoma, the CODOX regimen (cyclophosphamide, doxorubicin, vincristine, methotrexate, and cytarabine) simulating clinical treatment for Burkitt lymphoma, as well as lenalidomide (L), bortezomib (B), dexamethasone (D), and LBH589 lactate, which is marketed for relapsed or refractory multiple myeloma. In the subcutaneous tumor model experiments using human-derived tumor cell lines, the inhibitory effect of Purinostat Mesylate on tumors was assessed by measuring tumor volume (TV), tumor weight, relative tumor volume (RTV), and relative tumor growth rate (T/C). Additionally, in some model experiments, satellite groups were designed, where animals in these groups were not sacrificed at the same treatment endpoint and received extended treatment. […]

CN(Cc1nc2c(N3CCOCC3)nc(-c3ccc(N)cc3)nc2n1C)c1ncc(C(=O)NO)cn1.CS(=O)(=O)O [PM, 2-(((2-(4-Aminophenyl)-9-methyl-6-(4-morpholinyl)-9H-purine-8-yl)methyl)methylamino)-N-hydroxy-5-pyrimidine-carboxamide Mesylate]
irritation at the injection site [1]: did not cause irritation at the injection site
IC50 (CYP2D6): > 10000 nM
share of plasma AUC0-96h ([2]; female rats): 11.15%
amount in bile, % of administered dose ([2]; females): 2.45%
amount in feces, % of administered dose ([2]; females): 0.84%
amount in urine, % of administered dose ([2]; females): 0.35%
share of plasma AUC0-96h ([2]; male rats): 8.79%
amount in bile, % of administered dose ([2]; males): 2.47%
amount in feces, % of administered dose ([2]; males): 0.94%
amount in urine, % of administered dose ([2]; males): 0.66%
bone marrow micronucleus test result [3]: negative
concentration inducing increased acetylation of histone H3 and H4 [4]: 0.3 to 1 nM
AUC(0-t) ([5]; 1 mg/kg, read-out: AUC0-last): 55.3 ± 3.68 ng·h/mL
half-life ([5]; 1 mg/kg, read-out: T1/2): 3.79 ± 0.511 min
Vd ([5]; 1 mg/kg): 1.43 ± 0.135 L/kg
clearance ([5]; 1 mg/kg): 301 ± 20 mL/min/kg
AUC(0-t) ([5]; 3 mg/kg, 3 mg/kg daily i.v. for 7 days, read-out: AUC0-last on day 7): 332 ± 43.6 ng·h/mL
AUC(0-t) ([5]; 3 mg/kg, read-out: AUC0-last): 248 ± 36.1 ng·h/mL
half-life ([5]; 3 mg/kg, read-out: T1/2): 4.21 ± 0.248 min
Vd ([5]; 3 mg/kg): 1.13 ± 0.241 L/kg
clearance ([5]; 3 mg/kg): 205 ± 36.4 mL/min/kg
AUC(0-t) ([5]; 10 mg/kg, read-out: AUC0-last): 1280 ± 122 ng·h/mL
half-life ([5]; 10 mg/kg, read-out: T1/2): 6.24 ± 1.57 min
Vd ([5]; 10 mg/kg): 0.948 ± 0.125 L/kg
clearance ([5]; 10 mg/kg): 131 ± 12.8 mL/min/kg
C0 ([5]; 1 mg/kg single i.v.): 736 ± 66.5 ng/mL
C0 ([5]; 3 mg/kg single i.v.): 2880 ± 566 ng/mL
C0 ([5]; 10 mg/kg single i.v.): 11500 ± 1790 ng/mL
half-life ([5]; single i.v., range over doses, read-out: half-life): 3.79 to 6.24 min
increase in AUC0-last for tenfold increase in dose ([5]; female rats): 24.4 fold
increase in AUC0-last for tenfold increase in dose ([5]; male rats): 21.7 fold
IC50 (HUVEC): 68.9 nM
PAD (Mouse): 2.5 mg/kg
MRSD from MTD, most sensitive species (beagle, dog): 3.33 mg/m²
equivalent human dose of exposure at dog HNSTD (beagle, dog): 36.88 mg/m²
median survival time (T315I Bcr-Abl B-ALL; 5 mg/kg, solvent control 44 days): greater than 80 days
median survival time (T315I Bcr-Abl B-ALL; 10 mg/kg): greater than 80 days
